This note sets out measurements from publication PMC9415646, “Improving Aqueous Solubility and In Vitro Pharmacokinetic Properties of the 3-Nitroimidazo[1,2-a]pyridine Antileishmanial Pharmacophore” (Pharmaceuticals, 2022).

In data set [1] the test system is L. infantum intracellular amastigotes. As to the kind of experiment: Antileishmanial activity on L. infantum intracellular (intra-THP1 macrophage) amastigotes. It counts as cell-based. To be noted: Leishmania infantum, THP-1; intramacrophage (THP1) amastigotes, 120 h; read-out: EC50 L. infantum Intra. Ama. How it is done: The undifferentiated THP1 human monocyte cells (acute monocytic leukemia cell line purchased from ATCC, ref TIB-202) were grown in RPMI 1640 medium (Life Technologies, Saint-Aubin, France) supplemented with 10% FCS (Life Technologies, Saint-Aubin, France), 100 U/mL penicillin, 100 µg/mL streptomycin and 2 mM L-glutamine at 37 °C, 5% CO2. The culture was maintained between 3.10^5 and 1.10^6 cells/mL. The in vitro evaluation of the antileishmanial activity on intracellular amastigote forms of the tested compound was assessed as below.
Briefly, 200 μL of THP-1 cells with Phorbol 12-Myristate 13-Acetate (final concentration 50 ng/mL) were seeded in 96-well plates at an average density of 0.77 × 10^5 cells/mL and incubated for 96 h at 37 °C, 5% CO2. Promastigotes were centrifuged at 3000 rpm for 10 min and the supernatant replaced by the same volume of complete RPMI pH 5.4 and incubated for 24 h at 27 °C. Differentiated THP-1 cells were then infected by acidified promastigotes with an infection ratio of twenty parasites for one macrophage and incubated for 24 h at 37 °C, 5% CO2.
• Luciferase activity and determination of EC50 were performed as above.

Data set [2] in a line: Cytotoxicity evaluation on HepG2 cell line (MTT). The class given is cell-based. To be noted: human, HepG2 cells. How it is done:
The tested molecules’ cytotoxicity was assessed according to the method of Mosmann with slight modifications. […] Triplicate assays were performed for each sample. Each plate-well was then microscope-examined to detect possible precipitate formation before the medium was aspirated from the wells. 100 µL of MTT (3-(4,5-dimethyl-2-thiazolyl)-2,5-diphenyl-2H-tetrazolium bromide) solution (0.5 mg/mL in medium without FCS) were then added to each well. […] Plates were shaken vigorously (700 rpm) for 10 min. The absorbance was measured at 570 nm with 630 nm as reference wavelength using a BIO-TEK ELx808 Absorbance Microplate Reader. DMSO was used as blank and doxorubicin (purchased from Sigma Aldrich) as positive control. Cell viability was calculated as percentage of control (cells incubated without compound). […] (Palo Alto, CA, USA)). CC50 values represent the mean value calculated from three separate experiments.

Data set [3] concerns L. infantum promastigotes. As to the kind of experiment: Antileishmanial activity against L. infantum promastigotes (luciferase assay). The settings on record: Leishmania infantum, 72 h, read-out: EC50 L. infantum Pro. The class given is cell-based. The procedure:
L. infantum promastigotes (MHOM/MA/67/ITMAP-263, CNR Leishmania, Montpellier, France, expressing luciferase activity) were used in the following tests. The effects of the tested compounds on the growth of L. infantum promastigotes were assessed by Luciferase Assay. Briefly, promastigotes in log-phase in RPMI 1640 medium supplemented with 10% fetal calf serum (FCS), 2 mM L-glutamine and antibiotics (100U/mL penicillin, 100 µg/mL streptomycin and 50µg/mL geneticin), were incubated at an average density of 10^6 parasites/mL (100 µL/well) in sterile 96-well plates with various concentrations of compounds dissolved in DMSO (final concentration less than 0.5% v/v), in duplicate. Appropriate controls (100 µL/well) treated by DMSO and reference drugs (purchased for the majority from Sigma Aldrich) were added to each set of experiments. After a 72 h incubation period at 24 °C, each plate-well was then microscope-examined for detecting possible precipitate formation. To estimate the luciferase activities of promastigotes, 80 µL of each well are transferred in white 96-well plates, Steady Glow reagent (Promega) was added according to manufacter’s instructions, and plates were incubated for 2 min. The luminescence was measured in a FLUOstar Omega (BMG Labtech, Champigny-sur-Marne, France). […] EC50 were calculated by non-linear regression analysis processed on dose–response curves, using TableCurve 2D V5 software.

Data set [4] is described as follows: Thermodynamic solubility at pH 7.4 (miniaturized shake-flask). It counts as physicochemical. The settings on record: pH 7.4, PBS, 23 °C; for solubility thermodynamic at 24 h: phosphate buffer (PBS), aqueous buffer, kinetic from dmso stock. The procedure: Thermodynamic solubility at pH 7.4 of compounds was determined according to a miniaturized shake-flask method (Organisation for Economic Cooperation and Development guideline n°105). Phosphate Buffer solutions (pH 7.4, […], ionic strength […]) were prepared from Na2HPO4, KH2PO4 and KCl (Sigma Aldrich, Saint Quentin Fallavier, France); 10 µL of 20 mM stock solution were added to 5 mL glass tubes containing […] buffer (n = 3). The tubes were briefly sonicated and shacked by inversion during 24 h at 23 °C. Then, the tube contents were placed in a microtube which was centrifuged at 12,225× g for 10 min; 100 µL supernatant were mixed with 100 µL acetonitrile in a Greiner UV microplate. Standard solutions were prepared extemporaneously, diluting 20 mM DMSO stock solutions at […]; 5 µL of each working solution were diluted with 995 µL buffer and 100 µL were then mixed in microplates with 100 µL acetonitrile so as to ensure that the final proportions of each solvent in standard solutions and samples remained unchanged. Solubility at pH 7.4 was determined with an Infinite M200Pro (Tecan, Lyon, France) microplate reader in spectrophotometric mode (230 to 450 nm) from the specific λmax of each compound. The calibration curve was obtained from the […] standard solutions of tested compounds at 0, 25, 50, and 100 µM in a 50:50 (vol/vol) mixture of buffer with acetonitrinile/DMSO (99:1; vol/vol). Calibration curves were linear with R^2 > 0.99.

Data set [5] in a line: Cytotoxicity on THP-1 cell line (MTT). It counts as cell-based. To be noted: human, THP-1 cells, THP1 cell line. How it is done:
The plates were incubated for 72 h at 37 °C. Each well plate was then microscope-examined for detecting possible precipitate formation before the medium was aspirated from the wells. 100 µL of MTT solution (0.5 mg/mL in medium) were then added to each well. Cells were incubated for 2 h at 37 °C. […] Plates were shaken vigorously (300 rpm) for 10 min. The absorbance was measured at 570 nm using a BIO-TEK ELx808 Absorbance Microplate Reader. DMSO was used as blank and doxorubicin (purchased from Sigma Aldrich) as positive control. Cell viability was calculated as percentage of control (cells incubated with DMSO). […] (Palo Alto, CA, USA). CC50 values represent the mean value calculated from three separate experiments.

≈ marks a conversion by molar mass, not a printed value.

As to `O=[N+]([O-])c1c(CS(=O)(=O)c2ccc(OC(F)(F)F)cc2)nc2c(Sc3ccc(Cl)cc3)cc(Cl)cn12` [Compound 3e, 6-Chloro-8-[(4-Chlorophenyl)thio]-3-Nitro-2-[(4-Trifluoromethoxyphenylsulfonyl)methyl]imidazo[1,2-a]pyridine], the EC50 in data set [1] came to 1.6 ± 0.1 µM; in data set [3], 3.1 ± 0.2 µM. For the same molecule, the CC50 at 72 h in data set [2] was more than 12.5 µM; in data set [5], more than 100 µM. The molecule also displayed a thermodynamic solubility at 24 h in data set [4] of 64.7 ± 7.3 µM (≈ 37.4 µg/mL).
For `O=[N+]([O-])c1c(CS(=O)(=O)c2ccc(OC(F)(F)F)cc2)nc2c(Br)cc(Cl)cn12` [Compound 2f, 8-Bromo-6-Chloro-3-Nitro-2-[(4-Trifluoromethoxyphenylsulfonyl)methyl]imidazo[1,2-a] pyridine] the same measures were 4.2 ± 0.3 µM, 6.7 ± 0.8 µM, more than 25 µM, more than 100 µM and 8.6 ± 2.3 µM (≈ 4.43 µg/mL).
The corresponding values for `O=[N+]([O-])c1c(CS(=O)(=O)c2ccccc2)nc2c(Br)cc(Cl)cn12` [Hit A, 8-Bromo-6-chloro-3-nitro-2-(phenylsulfonylmethyl)imidazo[1,2-a]pyridine, reference compound] are 2.1 ± 0.1 µM, 8.7 ± 0.7 µM, more than 15.6 µM, more than 100 µM and 6.9 ± 1.5 µM (≈ 2.97 µg/mL).
In the case of `COc1ccc(S(=O)(=O)Cc2nc3c(Br)cc(Cl)cn3c2[N+](=O)[O-])cc1` [Compound 2g, 8-Bromo-6-Chloro-2-[(4-Methoxyphenylsulfonyl)methyl]-3-Nitroimidazo[1,2-a]pyridine], the concentration for a half-maximal effect (EC50) in data set [1] came to 2.2 ± 0.1 µM; in data set [3], 9.3 ± 1.2 µM. The CC50 at 72 h in data set [2] is 3.9 ± 1.3 µM; in data set [5] it was more than 100 µM. In data set [4], this molecule registered a thermodynamic solubility at 24 h of 5.7 ± 1.3 µM (≈ 2.63 µg/mL).
With `O=[N+]([O-])c1c(CS(=O)(=O)C2CC2)nc2c(Sc3ccc(Cl)cc3)cc(Cl)cn12` [Compound 3h, 6-Chloro-8-[(4-Chlorophenyl)thio]-2-[(cyclopropylsulfonyl)methyl]-3-Nitroimidazo[1,2-a]pyridine], the EC50 stood at 3.7 ± 0.2 µM in data set [1] and 2.2 ± 0.3 µM in data set [3]. Further, the CC50 at 72 h in data set [2] is 22.3 ± 2.5 µM; in data set [5] it was more than 62.5 µM. In data set [4], this molecule displayed a thermodynamic solubility at 24 h of 3 ± 0.4 µM (≈ 1.38 µg/mL).
The corresponding values for `O=[N+]([O-])c1c(CS(=O)(=O)c2ccc(Cl)cc2)nc2c(Sc3ccc(Cl)cc3)cc(Cl)cn12` [Compound 3b, 6-Chloro-2-[(4-Chlorophenylsulfonyl)methyl]-8-[(4-Chlorophenyl)thio]-3-Nitroimidazo[1,2-a]pyridine] are 0.7 ± 0.1 µM, 1.2 ± 0.1 µM, 8.9 ± 1.3 µM, more than 15.6 µM and less than 2 µM.
`O=[N+]([O-])c1c(CS(=O)(=O)c2ccccc2)nc2c(Sc3ccc(Cl)cc3)cc(Cl)cn12` [Hit B, reference compound]: the results for the EC50 in data set [1] and in data set [3] were 3.2 ± 0.1 µM and 0.6 ± 0.1 µM, respectively. Further, the CC50 at 72 h in data set [2] is more than 100 µM; in data set [5], more than 62.5 µM. In addition, the “Thermodynamic Solubility at pH 7.4 in PBS” value in data set [4] (24 h) stood at 1.4 ± 0.5 µM.
Consider `CSc1ccc(OCc2ncc([N+](=O)[O-])n2C)cc1` [Fexinidazole, reference compound], for which the EC50 in data set [1] came out at 15.9 ± 3.2 µM; in data set [3] it was 1 ± 0.1 µM. The CC50 at 72 h in data set [2] and in data set [5] was more than 100 µM in each case.
For the molecule `O=[N+]([O-])c1c(CS(=O)(=O)c2ccc(O)cc2)nc2c(Sc3ccc(Cl)cc3)cc(Cl)cn12` [Compound 3a, 4-{[(6-Chloro-8-[(4-Chlorophenyl)thio]-3-Nitroimidazo[1,2-a]pyridin-2-yl)methyl]sulfonyl}phenol], the half-maximal effective concentration (EC50) in data set [1] worked out at 2.7 ± 0.5 µM; in data set [3] it was 5.6 ± 0.9 µM. In addition, the results for the CC50 at 72 h in data set [2] and in data set [5] were 22.3 ± 2.5 µM and 28.2 ± 0.1 µM, respectively.
Turning to `COc1ccc(S(=O)(=O)Cc2nc3c(Sc4ccc(Cl)cc4)cc(Cl)cn3c2[N+](=O)[O-])cc1` [Compound 3f, 6-Chloro-8-[(4-Chlorophenyl)thio]-2-[(4-Methoxyphenylsulfonyl)methyl]-3-Nitroimidazo[1,2-a]pyridine], the EC50 in data set [1] is 0.9 ± 0.1 µM; in data set [3], 1.2 ± 0.1 µM. Besides, the CC50 at 72 h in data set [2] is more than 3.9 µM; in data set [5], more than 50 µM. The solubility (thermodynamic) at 24 h in data set [4] is less than 2 µM.
In the case of `O=[N+]([O-])c1c(CS(=O)(=O)c2ccc(F)cc2)nc2c(Sc3ccc(Cl)cc3)cc(Cl)cn12` [Compound 3c, 6-Chloro-8-[(4-Chlorophenyl)thio]-2-[(4-Fluorophenylsulfonyl)methyl]-3-Nitroimidazo[1,2-a]pyridine], the EC50 in data set [1] is 1.6 ± 0.1 µM; in data set [3], 1.5 ± 0.1 µM. Moreover, the CC50 at 72 h in data set [2] was more than 15.6 µM; in data set [5], more than 100 µM. Besides, in data set [4], the thermodynamic solubility at 24 h was less than 2 µM.
The corresponding values for `O=[N+]([O-])c1c(CS(=O)(=O)CCC(F)(F)F)nc2c(-c3ccncc3)cc(Cl)cn12` [Compound 7, 6-Chloro-3-Nitro-8-(Pyridin-4-yl)-2-[(3,3,3-Trifluoropropylsulfonyl)methyl]imidazo[1,2-a]pyridine] are 3.7 ± 0.4 µM, 14 ± 0.4 µM, more than 100 µM, more than 100 µM and 31.1 ± 3.7 µM (≈ 14 µg/mL).
For `O=[N+]([O-])c1c(CS(=O)(=O)CCC(F)(F)F)nc2c(S(=O)(=O)c3ccc(Cl)cc3)cc(Cl)cn12` [Compound 6b, 6-Chloro-8-[(4-Chlorophenyl)sulfonyl]-3-Nitro-2-[(3,3,3-Trifluoropropylsulfonyl)methyl] imidazo[1,2-a]pyridine], the EC50 in data set [1] was 8.3 ± 0.8 µM; in data set [3], 13.7 ± 0.9 µM. Further, the CC50 at 72 h in data set [2] was more than 10 µM; in data set [5], more than 100 µM.

The term EC50 denotes the concentration needed to bring the measured effect to its halfway point. A word on the CC50: it is the concentration that lowers cell viability or growth by half. Lower therefore signals harm at low concentration. Broadly, the solubility (thermodynamic) is solubility found after equilibrating the solid with the medium.
